Like-named read-outs stand apart in the source and are kept apart here.
Assays:
[1] = Cell proliferation (cytotoxicity) assay, WST-1; format: cell-based; details: human
Experimental: Cell Proliferation Assay: Huh 7.5.1 cells were seeded at a density of 2 × 10^4 cells per well in 96-well plates overnight. The cells were respectively incubated with serial diluted compounds for 48 h, and the viability of Huh7.5.1 cells was determined in 96-well tissue culture plates using cell proliferation reagent WST-1 (Roche, Basel, Switzerland). The absorbance (OD450 /reference OD630) was measured to detect the cytotoxicity of compounds, according to the manufacturer’s protocol of Cell Proliferation Reagent WST-1.

HCV JFH1-2a replicon = experiment: HCV JFH1-2a subgenomic replicon assay (Renilla luciferase, Huh 7.5.1 replicon cells); format: cell-based; details: Hepatitis C virus
T spleen cells = experiment: Spleen cells proliferation inhibition assay (MTT), T spleen cells; format: cell-based, mouse (ICR); details: mouse spleen cells, 72 h, read-out: T Spleen Cells IC50 ± SD
Experimental: Preparation of Splenocyte Suspension: The spleen was aseptically taken from female ICR mice strains (6–8 weeks-old, 20 ± 2 g), crushed gently and separated into single cells by squeezing in 20 mL RPMI 1640 medium (Invitrogen, shanghai, China). The cells obtained were passed through […] nylon cell strainer and centrifuged at 1000 rpm∙min^−1 for 5 min at RT. Pellets were added into 10 mL erythrocytes lysis buffer (150 mM NH4Cl, 10 mM KHCO3 and 0.1 mM EDTA) followed by centrifugation to remove erythrocytes. After washing twice with complete medium (RPMI 1640 containing 100 U∙mL^−1 of penicillin, 100 U∙mL^−1 of streptomycin and 10% FBS), they were re-suspended in the complete medium and used for cell culture.
After 72 h of incubation, the cell growth was evaluated with MTT assay. The assay plates were added 10 μL of 5 mg∙mL^−1 MTT per well and incubated for 4 h. The formazan generated was solubilized with 100 μL of solution (10% SDS, 5% isobutyl alcohol, and 10 mM HCl) after incubated at 37 °C overnight. The absorption at 580 nm relative to 680 nm was measured by SpectraMax Plus 384 Reader (Molecular Devices, Shanghai, China).

JFH1-2a (S282T) virus = experiment: HCV virus assay, mutant JFH1-2a (S282T) virus strain; format: cell-based; details: Hepatitis C virus, read-out: Anti-HCV Activity (Virus Assay) EC50 ± SD JFH1-2a (S282T)
[2] = tested on: JFH1-2a virus (wild type); experiment: HCV virus assay, JFH1-2a wild type, Huh 7.5.1 cells; details: Hepatitis C virus
HCV H77-1a replicon = experiment: HCV H77-1a subgenomic replicon assay; format: cell-based; details: Hepatitis C virus; Table 4; read-out: Anti-HCV Activity EC50 ± SD Replicon Assay H77-1a
HCV Con1-1b replicon = experiment: HCV Con1-1b subgenomic replicon assay; format: cell-based; details: Hepatitis C virus; Table 4; read-out: Anti-HCV Activity EC50 ± SD Replicon Assay Con1-1b
B spleen cells = experiment: Spleen cells proliferation inhibition assay (MTT), B spleen cells; format: cell-based, mouse (ICR); details: mouse spleen cells, 72 h, read-out: B Spleen Cells IC50 ± SD
Experimental: Preparation of Splenocyte Suspension: The spleen was aseptically taken from female ICR mice strains (6–8 weeks-old, 20 ± 2 g), crushed gently and separated into single cells by squeezing in 20 mL RPMI 1640 medium (Invitrogen, shanghai, China). The cells obtained were passed through 70 μM nylon cell strainer and centrifuged at 1000 rpm∙min^−1 for 5 min at RT. Pellets were added into 10 mL erythrocytes lysis buffer (150 mM NH4Cl, 10 mM KHCO3 and 0.1 mM EDTA) followed by centrifugation to remove erythrocytes. After washing twice with complete medium (RPMI 1640 containing 100 U∙mL^−1 of penicillin, 100 U∙mL^−1 of streptomycin and 10% FBS), they were re-suspended in the complete medium and used for cell culture.

in vivo = details: male, SD, rat, iv, i.v. 2 mg 25/kg; for AUC(0-inf): AUC0-∞
[3] = rats, intravenous injection of 25 (2 mg∙kg^−1)
HCV subgenomic replicon = details: cited from earlier work
[4] = Huh-7.5.1, read-out: Anti-HCV Activity (Virus Assay) EC50 ± SD JFH1-2a (Wild Type)
[5] = SD rats, Mean ± SD (Rat 1 and 3)

O=C(NC(=O)c1c(O)cccc1O)NC1c2ccccc2-c2ccccc21 [Compound 1]
CC50 at 48 h ([1]; Huh 7.5.1 cells, Table 4, 48 h): > 16000 nM | CC50 at 48 h ([1]; Huh 7.5.1 cells, Table 5): > 20000 nM | EC50 (HCV JFH1-2a replicon; Table 1, mean ± SD of three independent experiments, read-out: Anti-HCV JFH1-2a Replicon Assay EC50 ± SD): 920 ± 120 nM | EC50 (HCV JFH1-2a replicon; Table 4, read-out: Anti-HCV Activity EC50 ± SD Replicon Assay JFH1-2a): 920 ± 120 nM | IC50 (T spleen cells): 33000 ± 5720 nM | EC50 (JFH1-2a (S282T) virus): 560 ± 130 nM | EC50 [2, 4]: 520 ± 160 nM | EC50 ([2]; Huh-7.5.1, read-out: Anti-HCV Activity EC50 ± SD Virus Assay JFH1-2a): 670 ± 230 nM | EC50 (HCV H77-1a replicon): 1110 ± 330 nM | EC50 (HCV Con1-1b replicon): 780 ± 190 nM | IC50 (B spleen cells): 51900 ± 8680 nM | AUC(0-inf) (in vivo; SD rat, Rat 1): 335 ng·h/mL | AUC(0-inf) (in vivo; SD rat, Rat 3): 324 ng·h/mL | AUC(0-inf) (in vivo; [5]): 329 ± 8.08 ng·h/mL | Cmax (in vivo; SD rat, Rat 1): 698 ng/mL | Cmax (in vivo; SD rat, Rat 3): 1110 ng/mL | Cmax (in vivo; [5]): 904 ± 292 ng/mL | MRT (in vivo; SD rat, Rat 1): 0.94 h | MRT (in vivo; SD rat, Rat 3): 0.55 h | MRT (in vivo; [5]): 0.75 ± 0.28 h | half-life (in vivo; t1/2, SD rat, Rat 1): 1.84 h | half-life (in vivo; t1/2, SD rat, Rat 3): 1.21 h | half-life (in vivo; t1/2, SD rats, Mean ± SD (Rat 1 and 3)): 1.53 ± 0.45 h | plasma concentration after 5 min (mean ± SD) [3]: 904.5 ± 291.9 ng/mL

C/C=C/C[C@@H](C)[C@@H](O)[C@H]1C(=O)N[C@@H](CC)C(=O)N(C)[C@H](SCCN(C)C)C(=O)N(C)[C@@H](CC(C)(C)O)C(=O)N[C@@H](C(C)C)C(=O)N(C)[C@@H](CC(C)C)C(=O)N[C@@H](C)C(=O)N[C@H](C)C(=O)N(C)[C@@H](CC(C)C)C(=O)N(C)[C@@H](CC(C)C)C(=O)N(C)[C@@H](C(C)C)C(=O)N1C [SCY-635]
EC50 (HCV subgenomic replicon; ref [27], read-out: EC50 (subgenomic replicon assay, con1-derived)): 100 nM

CC(C)OC(=O)[C@H](C)N[P@](=O)(OC[C@H]1O[C@@H](n2ccc(=O)[nH]c2=O)[C@](C)(F)[C@@H]1O)Oc1ccccc1 [Sofosbuvir, reference compound]
CC50 at 48 h ([1]; Table 5): > 20000 nM | EC50 (JFH1-2a (S282T) virus): 1140 ± 210 nM | EC50 [2, 4]: 220 ± 70 nM

C/C=C/C[C@@H](C)[C@@H](O)[C@H]1C(=O)N[C@@H](CC)C(=O)N(C)[C@H](C)C(=O)N(CC)[C@@H](C(C)C)C(=O)N[C@@H](C(C)C)C(=O)N(C)[C@@H](CC(C)C)C(=O)N[C@@H](C)C(=O)N[C@H](C)C(=O)N(C)[C@@H](CC(C)C)C(=O)N(C)[C@@H](CC(C)C)C(=O)N(C)[C@@H](C(C)C)C(=O)N1C [alisporivir]
EC50 (HCV subgenomic replicon; ref [6], read-out: EC50 (subgenomic replicon assay)): 45 nM

Source: paper PMC6272715, “Discovery of Novel Small Molecule Anti-HCV Agents via the CypA Inhibitory Mechanism Using O-Acylation-Directed Lead Optimization” (Molecules, 2015)
